Reference: patent publication US9944591B2, “Active compound and related composition for dermatological use in the pharmaceutical or cosmetic field” (GIULIANI S.P.A., priority 2014, dated 2018)

Experiments:
[1] = test system: ROS (reactive oxygen species); test: Production of ROS by DCFH-DA assay (H2O2-induced oxidative stress); format: cell-based, human
TNF-α = test: Anti-inflammatory effects through gene expression of TNF-alpha on keratinocytes (qRT-PCR); format: cell-based; conditions: human keratinocytes NCTC 2544, 5 μM, 24 h, LPS 5 μg/ml; FIG. 3
Description: In such further test, an immortalized line of human keratinocytes NCTC 2544 is used (Perry V. P. et al., 1957) cultured in sterile flasks ([…]), incubated at 37° C. in a humid atmosphere at 5% CO2 in culture medium MEM (Minimum Essential Medium) supplemented with 10% fetal bovine serum (FBS), 2 mM glutamine, 1% non-essential amino acids, in the presence of 1% penicillin and streptomycin.
When the cells (human keratinocytes NCTC 2544) reached about 80% confluence, they were detached with trypsin/EDTA and seeded at a density of 1×10^6 cells/ml in 12-well plates and incubated at 37° C., 5% CO2 (24 h). […]
The effect of the compounds object of the study on the gene expression of TNF-α was evaluated by quantitative RT-PCR (quantitative reverse transcription-polymerasechainreaction-qRT-PCR). […]
Using a spectrophotometer (Jenway UV/VIS MOD: 6715, BS-6715B0), concentrations were calculated in μg/mL of total RNA extracted at a wavelength of 260 nm.
(§1) Finally, the integrity of RNA (2 μg/mL) was assessed by means of an electrophoresis run on 1% agarose gel. […]
(§2) Extracted and quantified RNA was diluted to a concentration of 2 μg/mL and reverse transcribed into cDNA. […]

[2] = test system: HAS1 (Hyaluronan Synthase 1); test: Gene expression of HAS1 (hyaluronan synthase 1) on fibroblasts (qRT-PCR); format: cell-based; conditions: BALB3T3 mouse fibroblasts, 24 h, 2.5 and 5 μM, FIG. 4
Description: In this third test, the mouse fibroblast cell line Balb 3T3 Clone A31 (ATCC CCL-163™) (Aaronson and Todaro, 1968) was used, cultured in sterile flasks ([…]), incubated at 37° C. in a humid atmosphere at 5% CO2 in DMEM (Dulbecco's Modified Eagle's Medium) added with 10% bovine fetal serum (CBS), 1% non-essential amino acids, in the presence of 1% penicillin and streptomycin.
The 1:3 split is done every 2 days upon achieving the monolayer by washing with 1×PBS (phosphate buffer without Ca^2+ and Mg^2+) and detachment of cells with a trypsin-EDTA solution at 37° C. for 2 minutes. […]
Gene expression of HAS1 in BALB3T3 cells was evaluated by relative quantitative RT-PCR (quantitative reverse transcription-polymerase chain reaction-qRT-PCR). […]
At the end of incubation with the active compounds of interest, cells were washed with PBS (1×) and finally subjected to RNA extraction procedure. At the end of the extraction, using a spectrophotometer (Jenway UV/VIS MOD: 6715, BS-6715B0), concentrations were calculated in μg/mL of total RNA extracted at a wavelength of 260 nm.
as §1, §2
The Taqman probe is a type of probe that allows the development of fluorescence as the amplification advances. […]

C/C=C/C=C/C=C/C(=O)NCCCC(=O)O [compound of the invention, 4-((2E,4E,6E)-octa-2,4,6-trienamid)butanoic acid]
% ROS produced/Ctr, compared to GABA ([1]; human keratinocytes NCTC2544, 0.5 μM, versus comparison compound GABA at same concentration, FIG. 2): superior antioxidant activity | % ROS produced/Ctr (antioxidant activity) ([1]; human keratinocytes NCTC2544, 16 h pre-treatment at 0.5 μM, 1 μM, 5 μM, then 1 mM H2O2 90 min, FIG. 1): antioxidant activity | gene expression of TNF-α (2-ΔΔCt) compared to positive control (TNF-α): reduced expression of TNF-α | gene expression of HAS1 compared to reference compound GABA ([2]; versus GABA): higher than the reference compound at both concentrations tested | gene expression of HAS1 (2^−ΔΔCt) [2]: increased gene expression of HAS1
